This note sets out measurements from patent US20060275856A1, “Method for analyzing cell free notch cleavage and method for drug screening” (OSAKA INDUSTRIAL PROMOTION ORGANIZATION, priority 2003, published 2006).

Data set [1] addresses T1, presenilin/γ-secretase (Homo sapiens, UniProt P49768).
T1 construct: A crude purified membrane fraction of K293 cells co-expressing F-NEXTΔC and swβAPP; endogenous in cells; host or cells: K293 (human embryonic kidney 293) cells co-expressing F-NEXTΔC and swβAPP; crude membrane fraction (CMF)
Description: Multiple substrate cell-free assay system combining βAPP and Notch-1 (IP/MALDI-TOF MS of Aβ, AICD, F-Nβ, NICDΔC). It counts as biochemical. As to the method:
In the case of cell-free γ-secretase assay, MS washing buffer composed of 4 time amount or more of 0.1% n-octylglucoside, 140 mM NaCl, 10 mM Tris (pH 8.0) and 0.025% sodium azide was added to an S1 or S2 fraction which was the supernatant of ultracentrifugation after the assay. The mixture was immunoprecipitated at 4° C. for 4 hours using 6636, 6618, 4G8 or M2 agarose. After the immunoprecipitation, the precipitate was washed three times at 4° C. for 10 minutes using the MS washing buffer. The precipitate was washed once more with 10 mM Tris (pH 8.0) containing 0.025% sodium azide, and then simply washed once more with water. A peptide bound to the specific antibody in the precipitate consequently obtained was eluted with TFA/acetonitrile/water (TFA: acetonitrile: water=1:20:20) saturated with α-cyano-4-hydroxy cinnamic acid. The solubilized sample was dried on a stainless plate, and analyzed by MALDI-TOF MS. MS peaks were calibrated by angiotensin (Sigma) and insulin β chain (Sigma).
Human embryonic kidney 293 cells (K293 cells) in which F-NEXTΔC and Sweden type mutant βAPP (swβAPP) had been constitutively co-expressed were made by transfecting with the Sweden type mutant βAPP using Lipofectamine 2000 (Invitrogen), selecting by G418 and subsequently, transfecting the cells expressing βAPP with F-NEXTΔC. It was confirmed first that F-NEXTΔC and swβAPP had been expressed in the lysate of this cell, and simultaneously that F-Nβ and Aβ had been released in the culture supernatant (FIG. 5A to 5C). The composition of F-Nβ and Aβ molecular species were examined and it was confirmed that they were not inconsistent with previous reports (results are not shown).
A crude purified membrane fraction of K293 cells co-expressing F-NEXTΔC and swβAPP, pretreated with 100 nM of L685,458 or 100 nM of DAPT for 2 hours before extracting the membrane fraction was used. The S1-40 min fraction was collected from this crude purified membrane fraction. The precipitate fraction after collecting the S1-40 min fraction was resuspended in the reaction buffer, and then sonicated for a short time. Subsequently the fraction was centrifuged at 100,000×g for 15 minutes to collect the supernatant fraction as the S2-40 min fraction.
The fractions were immunoprecipitated with the antibody specific for each fragment (4G8 for Aβ, 6618 for AICD, M2 agarose for F-Nβ and […] for NICDΔC), and analyzed using the MALDI-TOF mass analyzer (FIG. 8). NICDΔC and AICD de novo produced were identified in the S1-40 min fraction. F-Nβ and Aβ were identified in the S2-40 min fraction (FIG. 8). Even when the change was added to the multiple substrate cell-free assay system combining βAPP and Notch-1, the diversity in the proteolytic sites by the presenilin/γsecretase was conserved.
The cells co-expressing F-NEXTΔC and swβAPP were cultured up to the confluent phase, and treated with the γ-secretase inhibitor at each concentration for 3 hours. As the γ-secretase inhibitor, L685,458 which was a transition-state analogue which binds to an active center of the presenilin/γ-secretase and DAPT which was not the transition-state analogue were used. The cells after the treatment were washed twice with ice-cooled PBS to collect. These cells were lysed and homogenated to extract CMF. Subsequently, this membrane fraction was suspended in alkaline washing buffer and left stand at 4° C. for 30 minutes. Then, the resuspension and the centrifugation were repeated three times using the reaction buffer to wash out the alkaline washing buffer. It appears that most γ-secretase inhibitor contained in CMF was washed out until this process. Finally, CMF was suspended once more in the reaction buffer, and the cell-free reaction was performed. The amounts of AICD and NICDΔC in the S1-40 min fraction and the amounts of Aβ and Nβ in the S2-40 min fraction were semi-quantified from relative heights of MALDI-TOF MS peaks, and evaluated by four scales of −, +, ++ and +++.

The target in data set [2] is T1, presenilin/γ-secretase. The data set is described as above. The settings on record: cells pretreated at 1 μM and further 1 μM added in all buffers including homogenate and reaction buffer. In kind it is biochemical.
For data set [3], the target named is T1, presenilin/γ-secretase. Description: Pulse-chase experiment: secretion of F-Nβ from K293 cells expressing F-NEXTΔC or F-NEXT. The settings on record: 1 μM, pretreating for 2 hours (FIG. 4D). It counts as cell-based. The method, then:
In order to determine whether an N terminal fragment (NTF: F-Nβ) was released from the cells which had expressed F-NEXTΔC or F-NEXT as a result of proteolysis by presenilin/γ-secretase, the cells (K293 cells) which had stably expressed F-NEXTΔC or F-NEXT were cultured in a 10 cm dish up to a confluent phase. The cells were cultured in DMEM solution deprived of methionine (obtained by modifying a commercially available one from Gibco) for 45 minutes to be starved with methionine. Subsequently, the medium was replaced with the same DMEM solution deprived of methionine, and simultaneously the cells were metabolically pulse-labeled with 300 μCi of [^35S]-methionine/cysteine (Pro-mix, Amersham) for 30 minutes. Then the cells were chased in 10% FCS/DMEM for 2 hours.
After termination of a chase period, the medium was collected and immediately placed on ice. Then cell debris was eliminated by centrifuging at 3,000×g. Subsequently, a protease inhibitor cocktail (1:1000, Sigma) and 0.025% sodium azide were added. The sample was immunoprecipitated with 4G8 antibody or anti-FLAG-M2-agarose (Sigma) overnight, and a precipitate was washed three times with RIPA buffer containing 0.1% SDS, 0.5% deoxycholic acid and 1% Triton X-100. Subsequently, SDS-PAGE was performed using 10 to 20% gradient gel of Tris-tricine (Invitrogen). […]

The mark [4] stands for this setting: pretreated at 1 μM, thoroughly washed out.

FLAG-NEXT, sequence (chain, as listed by the source): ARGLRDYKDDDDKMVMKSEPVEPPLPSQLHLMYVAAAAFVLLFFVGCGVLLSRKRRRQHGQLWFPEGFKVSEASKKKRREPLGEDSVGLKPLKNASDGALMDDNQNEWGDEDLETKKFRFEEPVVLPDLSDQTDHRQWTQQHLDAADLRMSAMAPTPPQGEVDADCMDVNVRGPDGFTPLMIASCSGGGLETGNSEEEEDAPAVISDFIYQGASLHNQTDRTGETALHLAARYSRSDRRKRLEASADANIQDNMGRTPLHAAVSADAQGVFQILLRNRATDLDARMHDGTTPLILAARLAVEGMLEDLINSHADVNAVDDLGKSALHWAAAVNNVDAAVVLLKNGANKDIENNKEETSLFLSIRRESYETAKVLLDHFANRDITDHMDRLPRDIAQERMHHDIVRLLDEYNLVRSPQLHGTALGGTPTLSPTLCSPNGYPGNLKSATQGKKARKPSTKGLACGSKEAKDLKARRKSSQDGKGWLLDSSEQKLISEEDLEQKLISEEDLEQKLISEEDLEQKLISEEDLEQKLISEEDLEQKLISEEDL

Take `C[C@H](NC(=O)Cc1cc(F)cc(F)c1)C(=O)N[C@H](C(=O)OC(C)(C)C)c1ccccc1` [DAPT]: at presenilin/γ-secretase [1], the “action on γ49 and corresponding S3 cleavage” value was “less sensitively”; the “action upon γ40 and corresponding S4 cleavage” value is on record as “acted sensitively”. In addition, at presenilin/γ-secretase [1] (same pretreatment experiment (FIGS. 9A and 9B)), the “effects on the four fragments compared with L685,458” value is recorded as “extremely similar”.

In the case of `CC(C)C[C@H](NC(=O)[C@H](Cc1ccccc1)C[C@@H](O)[C@H](Cc1ccccc1)NC(=O)OC(C)(C)C)C(=O)N[C@@H](Cc1ccccc1)C(N)=O` [L685,458], on presenilin/γ-secretase [1], the “action on γ49 and corresponding S3 cleavage” value is “less sensitively”; the “action upon γ40 and corresponding S4 cleavage” value was “acted sensitively”. Further, on presenilin/γ-secretase [1] (setting [4]), the “Aβ/Nβ, γ cleaved NTF (S4/γ40 cleavage)” value was “not observed” and the “de novo production of AUCD/NICD which was γ cleaved CTF (S3/γ49 cleavage)” value is recorded as “recognized”. On presenilin/γ-secretase [1] (pretreated with 10 nM), the “peak heights of four fragments” value is listed as “maximum on average”. For the same compound, the “de novo production of F-Nβ/Aβ” value at presenilin/γ-secretase [1] (pretreatment concentration decreased to 100 nM and 10 nM) is given as “recovered”. The “production of F-Nβ, Aβ, NICDΔC and AICD (all of four fragments)” value on presenilin/γ-secretase [2] is given as “not observed at all”. The “secretion of F-Nβ” value at presenilin/γ-secretase [3] is given as “almost completely inhibited”.

As to “PS1 D385N, dominant negative mutant of presenilin, stably expressed in K293 cells”, the “NICD production and decrease of F-NEXT after 2 hours' chase” value in the data set with FLAG-NEXT is “not only the NICD production but also the decrease of F-NEXT and its derivatives were not observed after 2 hours' chase”. The “NICD production and decrease of the F-NEXT derivative after 2 hours' chase” value in the data set with F-NEXT V1744G is “not only the NICD production but also the decrease of F-NEXT and its derivatives were not observed after 2 hours' chase”; in the data set with F-NEXT V1744L it was “not only the NICD production but also the decrease of F-NEXT and its derivatives were not observed after 2 hours' chase”.

On to “wild type PS1 (presenilin), stably expressed in K293 cells”, for which the “degradation of the F-NEXT derivative during 2 hours' chase” value with F-NEXT V1744G was “F-NEXT V1744G and F-NEXT V1744L in the background of wild presenilin were degraded and their amounts were decreased during 2 hours' chase as with F-NEXT”; in the data set with F-NEXT V1744L, “F-NEXT V1744G and F-NEXT V1744L in the background of wild presenilin were degraded and their amounts were decreased during 2 hours' chase as with F-NEXT”.
